US12624018B1, “Inhibitors of RIPK2 and medical uses thereof” (Odyssey Therapeutics, Inc., priority 2022, dated 2026)
Read-outs that look alike come from different tables or passages of the source.

Legend:
[1] = target: T1, RIPK2 enzyme (Homo sapiens, UniProt O43353); assay: RIPK2 inhibition (ADP-Glo Kinase Assay); format: biochemical; conditions: RIPK2 5 nM, ATP 150 μM, MBP substrate, read-out: RIPK2 IC50
T1 construct: purchased Carna 09-128
Procedure, shortened: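 Human RIPK2 (5 nM) preincubated with compound 30 min at room temperature in 50 mM HEPES pH 7.5, 10 mM MgCl2, 2 mM DTT, 1 mM EGTA, 0.01% Brij-35, 0.05% BSA; native swine MBP as substrate. ADP formed quantified by ADP-Glo luminescence; percent inhibition relative to DMSO and no-enzyme controls.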

[2] = system: human NOD2 signaling; assay: Inhibition of human NOD2 signaling in HEK-Blue-hNOD2 cells (L18-MDP stimulated, SEAP reporter); format: cell-based; conditions: NOD2 ligand stimulation, SEAP reporter, read-out: hNOD2 IC50
Procedure, shortened: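 HEK-Blue-hNOD2 cells (HEK293 with NOD2 and SEAP reporter), 12500/well, treated with 10-point 3-fold compound dilutions plus L18-MDP 0.5 ng/mL final, 24 h at 37 °C. Supernatant SEAP read with QUANTI-Blue after 3 h at 620 nm; IC50 by 4-parameter fit vs DMSO±L18-MDP controls.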

[3] = target: T2, RIPK2 and XIAP protein-protein interaction (Homo sapiens, UniProt O43353); assay: Inhibition of the interaction of RIPK2 with XIAP (NanoBRET in HEK293T cells); format: cell-based; conditions: RIPK2 HaloTag / XIAP NanoLuc, read-out: NanoBRET Scaffolding IC50
T2 construct: the N-terminus of full-length RIPK2 was appended with the HaloTag fusion protein; expressed in transfected cells; host or cells: HEK293T
Excerpt: An assay measuring the RIPK2 and XIAP protein-protein interaction was generated using the NanoBRET protein:protein interaction system (Promega) which measures the energy transfer from a bioluminescent protein donor (NanoLuc fusion protein) to a fluorescent protein acceptor (Halotag fusion protein). In this assay, the C-terminus of full-length XIAP was appended with the NanoLuc fusion protein and the N-terminus of full-length RIPK2 was appended with the HaloTag fusion protein. Assay medium consisted of Opti-MEM I reduced serum medium with no phenol red plus 4% heat inactivated FBS. Transfection reagents were combined in a microfuge tube as follows: 400 μL of assay medium, 8 μL of vector with N-terminus of RIPK2 HaloTag fusion protein (vector concentration at 1 μg/μL), 0.8 μL of vector with C-terminus of XIAP NanoLuc fusion protein (vector concentration at 1 μg/μL), and 24 μL of FuGENE HD transfection reagent (Promega, catalogue number E2312). […] Test compounds were prepared into a 10 mM DMSO solution and were serially diluted into 10 points using a 3-fold dilution in a 384 well plate using a TECAN EV0200.
Method: HEK293T cells were transfected with the RIPK2 HaloTag fusion and XIAP NanoLuc fusion vectors in suspension. […] Transfection reagents were pre-mixed and incubated at room temperature for 30 minutes. Then the total transfection reagent mixture was added dropwise to the 16 mL cell suspension and mixed gently. 40 μL of the cells and transfection reagent suspension was plated into a white 384 well plate and incubated at 37° C. in a CO2 incubator for 24 hours. […] Lastly, a 3× solution of NanoBRET Nano-Glo substrate in Opti-MEM I reduced serum media (no phenol red; 20 μL total volume) was added to each well and incubated for 2-3 minutes at room temperature. The plate was then measured using 460 nm filter (donor emission) and 618 nm filter (acceptor emission) in an EnVision multimode plate reader (PerkinElmer). The NanoBRET ratio values were determined by dividing the acceptor emission value by the donor emission value for each sample.

[4] = Homo sapiens, HEK-Blue hNOD2, HEK-Blue-hNOD2 cells

T2 sequence (O43353 whole entry, the tested form may be a part): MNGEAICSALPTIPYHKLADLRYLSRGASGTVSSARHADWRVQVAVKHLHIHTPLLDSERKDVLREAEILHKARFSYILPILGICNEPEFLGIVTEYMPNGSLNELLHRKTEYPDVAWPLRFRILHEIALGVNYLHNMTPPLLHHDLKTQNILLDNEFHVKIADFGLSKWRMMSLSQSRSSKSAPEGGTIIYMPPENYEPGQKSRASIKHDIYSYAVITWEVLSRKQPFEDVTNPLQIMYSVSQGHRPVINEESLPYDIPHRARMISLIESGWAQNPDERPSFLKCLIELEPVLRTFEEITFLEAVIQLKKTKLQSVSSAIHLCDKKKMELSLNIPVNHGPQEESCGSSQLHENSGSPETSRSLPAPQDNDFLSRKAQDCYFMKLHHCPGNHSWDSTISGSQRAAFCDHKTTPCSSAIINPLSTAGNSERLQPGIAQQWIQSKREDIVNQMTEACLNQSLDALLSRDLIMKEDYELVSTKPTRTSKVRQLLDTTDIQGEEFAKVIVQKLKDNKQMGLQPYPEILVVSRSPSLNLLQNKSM
T1 sequence (O43353 1-299 limits assumed): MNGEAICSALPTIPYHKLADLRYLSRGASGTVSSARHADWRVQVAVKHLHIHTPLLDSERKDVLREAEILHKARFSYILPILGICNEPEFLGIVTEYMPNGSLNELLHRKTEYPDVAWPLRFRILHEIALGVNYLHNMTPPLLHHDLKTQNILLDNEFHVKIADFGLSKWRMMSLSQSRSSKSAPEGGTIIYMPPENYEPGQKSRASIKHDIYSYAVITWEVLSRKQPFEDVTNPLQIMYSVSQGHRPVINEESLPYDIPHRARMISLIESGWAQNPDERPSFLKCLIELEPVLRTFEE

Row | Compound | IC50 [1] | IC50 [2, 4] | IC50 [3] | IC50 ([2]; HEK-Blue-hNOD2 cells)
1 | [2H]C([2H])([2H])NC(=O)c1ccc2nccc(Oc3cc(F)c(CC(=O)Nc4cnn(C56CC(C5)C6)c4)cc3C([2H])([2H])[2H])c2c1 (single isomer, unassigned) [Compound 512, 4-(4-(2-((1-(bicyclo[1.1.1]pentan-1-yl)-1H-pyrazol-4-yl)amino)-2-oxoethyl)-5-fluoro-2-(methyl-d3)phenoxy)-N-(methyl-d3)quinoline-6-carboxamide] | < 2.5 nM | 2.4 nM | 57.6 nM | 
2 | Cc1cc(CC(=O)Nc2cnn(C34CC(C3)C4)c2)ccc1Oc1ccnc2ccc(S(=N)(=O)C3CC3)cc12 (single isomer, unassigned) [Compound 529, N-(1-(bicyclo[1.1.1]pentan-1-yl)-1H-pyrazol-4-yl)-2-(4-((6-(cyclopropanesul-fonimidoyl)quinolin-4-yl)oxy)-3-methylphenyl) acetamide] | < 2.5 nM | 14.3 nM | 75 nM | 
3 | Cc1cc(CC(=O)Nc2cnn(C34CC(C3)C4)c2)ccc1Oc1ccnc2ccc(S(=N)(=O)C3CC3)cc12 (single isomer, unassigned) [Compound 530, N-(1-(bicyclo[1.1.1]pentan-1-yl)-1H-pyrazol-4-yl)-2-(4-((6-(cyclopropanesul-fonimidoyl)quinolin-4-yl)oxy)-3-methylphenyl) acetamide] | < 2.5 nM |  | 94.3 nM | 21.5 nM
4 | Cc1cc(CC(=O)Nc2cnn(C(C)(C)C)c2)ccc1Oc1ccnc2ccc(S(=N)(=O)C(C)C)cc12 (single isomer, unassigned) [Compound 547, N-(1-(tert-butyl)-1H-pyrazol-4-yl)-2-(3-methyl-4-((6-(propan-2-ylsulfonimidoyl)quinolin-4-yl)oxy)phenyl) acetamide] | < 2.5 nM | 1.3 nM | 153 nM | 
5 | Cc1cc(CC(=O)Nc2cnn(C(C)(C)C)c2)ccc1Oc1ccnc2ccc(S(=N)(=O)C(C)C)cc12 (single isomer, unassigned) [Compound 548, N-(1-(tert-butyl)-1H-pyrazol-4-yl)-2-(3-methyl-4-((6-(propan-2-ylsulfonimidoyl)quinolin-4-yl)oxy)phenyl) acetamide] | < 2.5 nM |  | 108 nM | 0.9 nM
6 | Cc1cc(CC(=O)Nc2cnn(C(C)(C)C)c2)ccc1Oc1ccnc2ccc(S(=N)(=O)C3CCC3)cc12 (single isomer, unassigned) [Compound 551, N-(1-(tert-butyl)-1H-pyrazol-4-yl)-2-(4-((6-(cyclobutanesulf-onimidoyl)quinolin-4-yl)oxy)-3-methylphenyl) acetamide] | < 2.5 nM | 1.7 nM | 87.1 nM | 
7 | Cc1cc(CC(=O)Nc2cnn(C(C)(C)C)c2)ccc1Oc1ccnc2ccc(S(=N)(=O)C3CCC3)cc12 (single isomer, unassigned) [Compound 552, N-(1-(tert-butyl)-1H-pyrazol-4-yl)-2-(4-((6-(cyclobutane-sulfonimidoyl)quinolin-4-yl)oxy)-3-methylphenyl) acetamide] | < 2.5 nM |  | 60.9 nM | 1.7 nM
8 | [2H]C([2H])([2H])NC(=O)c1ccc2nccc(Oc3cc(F)c(CC(=O)Nc4cnn(C(C)(C)C)c4)c(F)c3C)c2c1 (single isomer, unassigned) [Compound 555, 4-(4-(2-((1-(tert-butyl)-1H-pyrazol-4-yl)amino)-2-oxoethyl)-3,5-difluoro-2-methylphenoxy)-N-(methyl-d3)quinoline-6-carboxamide] | < 2.5 nM | 0.1 nM | 7.3 nM | 
9 | [2H]C([2H])([2H])NC(=O)c1ccc2nccc(Oc3cc(F)c(CC(=O)Nc4cnn(C56CC(C5)C6)c4)cc3C)c2c1 (single isomer, unassigned) [Compound 563, 4-(4-(2-((1-(bicyclo[1.1.1]pentan-1-yl)-1H-pyrazol-4-yl)amino)-2-oxoethyl)-5-fluoro-2-methylphenoxy)-N-(methyl-d3)quinoline-6-carboxamide] | < 2.5 nM | 1.9 nM | 176 nM | 
10 | CC(C)(C)n1cc(NC(=O)Cc2cc(Cl)c(Oc3ccnc4ccc(S(=O)(=O)C5CC5)cc34)cc2F)cn1 [Compound 464, N-(1-(tert-butyl)-1H-pyrazol-4-yl)-2-(5-chloro-4-((6-(cyclopropylsulfonyl)quinolin-4-yl)oxy)-2-fluorophenyl)acetamide] | < 2.5 nM | 0.5 nM | 7.5 nM | 
11 | CNC(=O)c1ccc2nccc(Oc3c(C)cc(CC(=O)Nc4cnn(C(C)(C)C)c4)cc3F)c2c1 [Compound 469, 4-(4-(2-((1-(tert-butyl)-1H-pyrazol-4-yl)amino)-2-oxoethyl)-2-fluoro-6-methylphenoxy)-N-methylquinoline-6-carboxamide] | < 2.5 nM | 1.6 nM | 6.6 nM | 
12 | Cc1cc(CC(=O)Nc2cnn(C(C)(C)C)c2)c(F)cc1Oc1ccnc2ccc(C(=O)N3[C@H](C)CNC[C@@H]3C)cc12 [Compound 470, N-(1-(tert-butyl)-1H-pyrazol-4-yl)-2-(4-((6-((2R,6S)-2,6-dimethylpiperazine-1-carbonyl)quinolin-4-yl)oxy)-2-fluoro-5-methylphenyl)acetamide] | < 2.5 nM | 1.1 nM | 13.1 nM | 
13 | Cc1cc(CC(=O)Nc2cnn(C(C)(C)C)c2)c(F)cc1Oc1ccnc2ccc(C(=O)N3C[C@@H]4C[C@H]3CN4)cc12 [Compound 471, 2-(4-((6-((1S,4S)-2,5-diazabicyclo[2.2.1]heptane-2-carbonyl)quinolin-4-yl)oxy)-2-fluoro-5-methylphenyl)-N-(1-(tert-butyl)-1H-pyrazol-4-yl)acetamide] | < 2.5 nM | 9.9 nM | 1020 nM | 
14 | Cc1cc(CC(=O)Nc2cnn(C(C)(C)C)c2)cc(Cl)c1Oc1ccnc2ccc(S(C)(=O)=O)cc12 [Compound 473, N-(1-(tert-butyl)-1H-pyrazol-4-yl)-2-(3-chloro-5-methyl-4-((6-(methylsulfonyl)quinolin-4-yl)oxy)phenyl)acetamide] | < 2.5 nM | 7.8 nM | 171 nM | 
15 | Cc1cc(CC(=O)Nc2cnn(C(C)(C)C)c2)c(Cl)cc1Oc1ccnc2ccc(S(C)(=O)=O)cc12 [Compound 474, N-(1-(tert-butyl)-1H-pyrazol-4-yl)-2-(2-chloro-5-methyl-4-((6-(methylsulfonyl)quinolin-4-yl)oxy)phenyl)acetamide] | 8.1 nM | 95.6 nM | 621 nM | 
16 | Cc1cc(CC(=O)Nc2cnn(C(C)(C)C)c2)c(F)cc1Oc1ccnc2ccc(-c3nccnc3C)cc12 [Compound 476, N-(1-(tert-butyl)-1H-pyrazol-4-yl)-2-(2-fluoro-5-methyl-4-((6-(3-methylpyrazin-2-yl)quinolin-4-yl)oxy)phenyl)acetamide] | < 2.5 nM | 5.9 nM | 52.1 nM | 
17 | Cc1cc(CC(=O)Nc2cnn(C(C)(C)C)c2)c(F)cc1Oc1ccnc2ccc(-c3ncncc3C)cc12 [Compound 477, N-(1-(tert-butyl)-1H-pyrazol-4-yl)-2-(2-fluoro-5-methyl-4-((6-(5-methylpyrimidin-4-yl)quinolin-4-yl)oxy)phenyl)acetamide] | < 2.5 nM | 5.4 nM | 38.7 nM | 
18 | Cc1cc(CC(=O)Nc2cnn(C(C)(C)C)c2)c(F)cc1Oc1ccnc2ccc(-c3c[nH]nc3C)cc12 [Compound 479, N-(1-(tert-butyl)-1H-pyrazol-4-yl)-2-(2-fluoro-5-methyl-4-((6-(3-methyl-1H-pyrazol-4-yl)quinolin-4-yl)oxy)phenyl)acetamide] | < 2.5 nM | 1.4 nM | 5.8 nM | 
19 | CNCc1nnc(-c2ccc3nccc(Oc4cc(F)c(CC(=O)Nc5cnn(C(C)(C)C)c5)cc4C)c3c2)o1 [Compound 481, N-(1-(tert-butyl)-1H-pyrazol-4-yl)-2-(2-fluoro-5-methyl-4-((6-(5-((methylamino)methyl)-1,3,4-oxadiazol-2-yl)quinolin-4-yl)oxy)phenyl)acetamide] | < 2.5 nM | 4.2 nM | 4.5 nM | 
